The target in data set [1] is T1, Dorea PTS_EIIBCA (I9 PTS_EIIBCA) (uncultured bacterium, UniProt S6CP27).
T1 construct: full-length single multidomain protein (domains B, C, A; ten predicted transmembrane helices)
T1 sequence (S6CP27 1-643): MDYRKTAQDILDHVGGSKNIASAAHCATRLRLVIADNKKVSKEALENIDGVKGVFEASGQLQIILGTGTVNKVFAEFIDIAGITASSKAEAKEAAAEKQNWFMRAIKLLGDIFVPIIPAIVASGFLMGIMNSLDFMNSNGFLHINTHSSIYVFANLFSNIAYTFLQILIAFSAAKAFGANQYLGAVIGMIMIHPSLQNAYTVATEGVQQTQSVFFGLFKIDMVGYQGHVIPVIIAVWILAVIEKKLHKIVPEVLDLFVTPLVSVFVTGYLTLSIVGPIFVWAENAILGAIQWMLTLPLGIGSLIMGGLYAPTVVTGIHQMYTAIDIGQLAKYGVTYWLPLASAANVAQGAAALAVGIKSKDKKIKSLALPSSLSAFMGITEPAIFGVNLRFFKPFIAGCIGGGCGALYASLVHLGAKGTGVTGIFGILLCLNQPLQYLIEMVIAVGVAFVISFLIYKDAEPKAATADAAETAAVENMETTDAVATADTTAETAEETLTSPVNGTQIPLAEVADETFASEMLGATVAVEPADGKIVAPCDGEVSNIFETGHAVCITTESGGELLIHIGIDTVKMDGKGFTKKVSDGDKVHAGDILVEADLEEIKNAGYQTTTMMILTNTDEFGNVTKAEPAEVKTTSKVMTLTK
The experiment in a line: binding saturation on washed crude membranes; unbound kestose by HPAEC-PAD.

Substrate in data set [2]: OC[C@H]1O[C@@](CO)(OC[C@@]2(O[C@H]3O[C@H](CO)[C@@H](O)[C@H](O)[C@H]3O)O[C@H](CO)[C@@H](O)[C@@H]2O)[C@@H](O)[C@@H]1O
The experiment in a line: uptake saturation in intact E. coli cells; residual kestose by HPAEC-PAD. The following applies: I9min_PTS cells (E. coli EPI100, host EI and HPr/FPr complement), TBS pH 7.0, 37°C, transport. The format is cell-based, uncultured bacterium. An excerpt:
uptake saturation in intact E. coli cells; residual kestose by HPAEC-PAD on Dorea PTS_EIIBCA (I9 PTS_EIIBCA) | The affinity constants of kestose uptake by I9min_PTS cells (Km)

The text below walks through data of publication PMC6952197, “Harvesting of Prebiotic Fructooligosaccharides by Nonbeneficial Human Gut Bacteria” (mSphere, 2020).

In the case of `OC[C@H]1O[C@@](CO)(OC[C@@]2(O[C@H]3O[C@H](CO)[C@@H](O)[C@H](O)[C@H]3O)O[C@H](CO)[C@@H](O)[C@@H]2O)[C@@H](O)[C@@H]1O` [kestose], the Kd – broadly, the equilibrium constant for the complex coming apart – in data set [1] is 51 ± 12 µM.

B1: Dorea PTS_EIIBCA (I9 PTS_EIIBCA) (uncultured bacterium) (protein)
chain: T1 sequence (S6CP27 1-643)
notes: full-length single multidomain protein (domains B, C, A; ten predicted transmembrane helices)
In the case of B1, the Km (as a rule, the concentration of substrate that gives half-maximal velocity) in data set [2] came to 266 ± 165 µM.
